Experimental data as given in paper PMC6009904, “Carbonic anhydrase inhibitory properties of some uracil derivatives” (Journal of Enzyme Inhibition and Medicinal Chemistry, 2017).

Legend:
hCA I = biological target: T1, hCA I (Homo sapiens, UniProt P00915); test: hCA I inhibition, esterase assay with 4-nitrophenylacetate as substrate; format: biochemical; conditions: 4-nitrophenylacetate substrate, mean from at least three determinations, enzyme purified from human erythrocytes
T1 construct: we have purified CA I and II (hCA I and hCA II) from human erythrocytes; from tissue; host or cells: human erythrocytes (fresh human blood)
T1 sequence (P00915 whole entry): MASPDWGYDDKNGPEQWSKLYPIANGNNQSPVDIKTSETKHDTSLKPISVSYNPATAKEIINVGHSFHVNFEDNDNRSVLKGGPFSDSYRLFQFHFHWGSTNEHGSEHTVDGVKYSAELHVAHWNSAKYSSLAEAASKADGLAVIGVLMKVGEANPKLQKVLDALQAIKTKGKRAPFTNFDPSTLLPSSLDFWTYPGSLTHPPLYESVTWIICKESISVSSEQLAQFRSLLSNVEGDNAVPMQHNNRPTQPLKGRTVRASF
Procedure: (§1) Erythrocytes were purified from fresh human blood obtained from the Blood Centre of the Research Hospital at Atatürk University. The blood samples were centrifuged at 1500 rpm for 15 min and the plasma and buffy coat were removed. The red cells were isolated and washed twice with 0.9% NaCl, and hemolysed with 1.5 volumes of ice-cold water. The ghost and intact cells were removed by centrifugation at 20 000 rpm for 30 min at 4 °C. The pH of the hemolysate was adjusted to 8.7 with solid Tris[18]. Firstly, benzoyl chloride and stirred for four hours at room temperature in CH2Cl2 cellulose. After the spacer arm cellulose added as a benzyl group and finally diazotized sulfanilamide clamped to the para position of benzyl group as ligand. The hemolysate was applied to the prepared cellulose-benzyl-sulfanylamide affinity column equilibrated with 25 mM Tris-HCl/0.1 M Na2SO4 (pH 8.7). The affinity gel was washed with 25 mM Tris-HCl/22 mM Na2SO4 (pH 8.7). The human carbonic anhydrase (hCA I and hCA II) isozymes were eluted with 1 M NaCl/25 mM Na2HPO4 (pH 6.3) and 0.1 M CH3COONa/0.5 M NaClO4 (pH 5.6), respectively. All procedures were performed at 4 °C[16].
(§2) Enzyme activity was determined spectrophotometrically by following the change in absorbance at 348 nm of 4-nitrophenylacetate to 4-nitrophenylate over a period of 3 min at 25 °C[19–21]. The enzymatic reaction contained 1.4 mL 0.05 M Tris-SO4 buffer (pH 7.4), 1 mL 3 mM 4-nitrophenylacetate, 0.5 mL H2O and 0.1 mL enzyme solution, in a total volume of 3.0 mL[22]. Inhibitory effects of compounds 4–12 were compared with phenolic compounds 13–15. Different inhibitor concentrations were used and all compounds were tested in triplicate at each concentration used. Control cuvette activity was acknowledged as 100% in the absence of inhibitor. An Activity% – [Inhibitor] graph was drawn for each inhibitor[22–24]. The curve-fitting algorithm allowed to obtain the IC50 values, working at the lowest concentration of substrate of 0.15 mM, from which KI values were calculated[25]^,[26]. The catalytic activity of these enzymes was calculated from Lineweaver–Burk plots, as reported earlier, and represent the mean from at least three different determinations. The CA I and II isoenzymes used here were purified from human blood as described earlier.

hCA II = biological target: T2, hCA II (Homo sapiens, UniProt P00918); test: hCA II inhibition, esterase assay with 4-nitrophenylacetate as substrate; format: biochemical; conditions: 4-nitrophenylacetate substrate, mean from at least three determinations, enzyme purified from human erythrocytes
T2 construct: we have purified CA I and II (hCA I and hCA II) from human erythrocytes; from tissue; host or cells: human erythrocytes (fresh human blood)
Procedure: as §1, §2

Ki (hCA I) [nM] | Ki (hCA II) [nM] | Compound
85 | 172 | Cn1c(N)cc(=O)n(C)c1=O [6-Amino 1,3-Dimethyluracil (11), 6-Amino 1,3-Dimethyluracil]
104 | 236 | Cn1c(N)c(N)c(=O)n(C)c1=O [5,6-Diamino 1,3-Dimethyluracil (12), 5,6-Diamino 1,3-Dimethyluracil]
459 | 1430 | O=C(O)c1c[nH]c(=O)[nH]c1=O [Isoorotic acid (10), isoorotic acid]
732 | 1680 | O=C(O)c1cc(=O)[nH]c(=O)[nH]1 [Orotic acid (9), Orotic acid]
